From ChEMBL document CHEMBL4138123, “Design, synthesis and biological evaluation of novel pyrazolochalcones as potential modulators of PI3K/Akt/mTOR pathway and inducers of apoptosis in breast cancer cells” (Eur J Med Chem, 2017)

What was measured:
Assay type in all cases: functional
SF-539 [1] = assay: Cytotoxicity against human SF539 cells assessed as cell growth at 1 uM after 48 hrs by sulforhodamine B assay relative to control; settings: SF-539, 48 h, read-out: Activity
OVCAR-5 [2] = assay: Cytotoxicity against human OVCAR5 cells assessed as cell growth at 10 uM after 48 hrs by sulforhodamine B assay relative to control; settings: OVCAR-5, 48 h, read-out: Activity
786-0 [3] = assay: Cytotoxicity against human 786-0 cells assessed as cell growth at 0.01 uM after 48 hrs by sulforhodamine B assay relative to control; settings: 786-0, 48 h, read-out: Activity
SW-620 = assay: Cytotoxicity against human SW620 cells assessed as cell growth at 0.01 uM after 48 hrs by sulforhodamine B assay relative to control; settings: SW-620, 48 h, read-out: Activity
IGROV-1 = assay: Cytotoxicity against human IGROV1 cells assessed as cell growth at 10 uM after 48 hrs by sulforhodamine B assay relative to control; settings: IGROV-1, 48 h, read-out: Activity
A498 = assay: Cytotoxicity against human A498 cells assessed as cell growth at 0.01 uM after 48 hrs by sulforhodamine B assay relative to control; settings: A498, 48 h, read-out: Activity
DU-145 = assay: Cytotoxicity against human DU145 cells assessed as cell growth at 100 uM after 48 hrs by sulforhodamine B assay relative to control; settings: DU-145, 48 h, read-out: Activity
UO-31 = assay: Cytotoxicity against human UO31 cells assessed as cell growth at 0.01 uM after 48 hrs by sulforhodamine B assay relative to control; settings: UO-31, 48 h, read-out: Activity
NCI-H226 = assay: Cytotoxicity against human NCI-H226 cells assessed as growth inhibition after 48 hrs by sulforhodamine B assay; settings: NCI-H226, 48 h
SNB-19 = assay: Cytotoxicity against human SNB19 cells assessed as cell growth at 100 uM after 48 hrs by sulforhodamine B assay relative to control; settings: SNB-19, 48 h, read-out: Activity
786-0 [4] = assay: Cytotoxicity against human 786-0 cells assessed as cell growth at 100 uM after 48 hrs by sulforhodamine B assay relative to control; settings: 786-0, 48 h, read-out: Activity
OVCAR-5 [5] = assay: Cytotoxicity against human OVCAR5 cells assessed as cell growth at 0.1 uM after 48 hrs by sulforhodamine B assay relative to control; settings: OVCAR-5, 48 h, read-out: Activity
BT-549 = assay: Cytotoxicity against human BT549 cells assessed as growth inhibition after 48 hrs by sulforhodamine B assay; settings: BT-549, 48 h
SK-MEL-5 = assay: Cytotoxicity against human SK-MEL-5 cells assessed as cell growth at 10 uM after 48 hrs by sulforhodamine B assay relative to control; settings: SK-MEL-5, 48 h, read-out: Activity
KM12 = assay: Cytotoxicity against human KM12 cells assessed as growth inhibition after 48 hrs by sulforhodamine B assay; settings: KM12, 48 h
NCI-H322M = assay: Cytotoxicity against human NCI-H322M cells assessed as cell growth at 10 uM after 48 hrs by sulforhodamine B assay relative to control; settings: read-out: Activity
HT-29 [6] = assay: Cytotoxicity against human HT-29 cells assessed as cell growth at 10 uM after 48 hrs by sulforhodamine B assay relative to control; settings: HT-29, 48 h, read-out: Activity
SN12C [7] = assay: Cytotoxicity against human SN12C cells assessed as cell growth at 0.01 uM after 48 hrs by sulforhodamine B assay relative to control; settings: read-out: Activity
RXF 393 [8] = assay: Cytotoxicity against human RXF393 cells assessed as cell growth at 0.01 uM after 48 hrs by sulforhodamine B assay relative to control; settings: RXF 393, 48 h, read-out: Activity
T47D [9] = assay: Cytotoxicity against human T47D cells assessed as growth inhibition after 48 hrs by sulforhodamine B assay
HOP-62 = assay: Cytotoxicity against human HOP62 cells assessed as growth inhibition after 48 hrs by sulforhodamine B assay; settings: HOP-62, 48 h
HT-29 [10] = assay: Cytotoxicity against human HT-29 cells assessed as cell growth at 0.1 uM after 48 hrs by sulforhodamine B assay relative to control; settings: HT-29, 48 h, read-out: Activity
RXF 393 [11] = assay: Cytotoxicity against human RXF393 cells assessed as cell growth at 100 uM after 48 hrs by sulforhodamine B assay relative to control; settings: RXF 393, 48 h, read-out: Activity
HCT-116 = assay: Cytotoxicity against human HCT116 cells assessed as cell growth at 100 uM after 48 hrs by sulforhodamine B assay relative to control; settings: HCT-116, 48 h, read-out: Activity
HCT-15 = assay: Cytotoxicity against human HCT15 cells assessed as cell growth at 100 uM after 48 hrs by sulforhodamine B assay relative to control; settings: HCT-15, 48 h, read-out: Activity
OVCAR-3 = assay: Cytotoxicity against human OVCAR3 cells assessed as growth inhibition after 48 hrs by sulforhodamine B assay; settings: OVCAR-3, 48 h
T47D [12] = assay: Cytotoxicity against human T47D cells assessed as cell growth at 10 uM after 48 hrs by sulforhodamine B assay relative to control; settings: read-out: Activity
M14 [13] = assay: Cytotoxicity against human M14 cells assessed as cell growth at 10 uM after 48 hrs by sulforhodamine B assay relative to control; settings: M14, 48 h, read-out: Activity
M14 [14] = assay: Cytotoxicity against human M14 cells assessed as cell growth at 1 uM after 48 hrs by sulforhodamine B assay relative to control; settings: M14, 48 h, read-out: Activity
MDA-MB-231 = assay: Cytotoxicity against human MDA-MB-231 cells assessed as cell growth at 100 uM after 48 hrs by sulforhodamine B assay relative to control; settings: MDA-MB-231, 48 h, read-out: Activity
T47D [15] = assay: Cytotoxicity against human T47D cells assessed as cell growth at 1 uM after 48 hrs by sulforhodamine B assay relative to control; settings: read-out: Activity
SR = assay: Cytotoxicity against human SR cells assessed as cell growth at 0.1 uM after 48 hrs by sulforhodamine B assay relative to control; settings: read-out: Activity
SF-539 [16] = assay: Cytotoxicity against human SF539 cells assessed as cell growth at 0.01 uM after 48 hrs by sulforhodamine B assay relative to control; settings: SF-539, 48 h, read-out: Activity
M14 [17] = assay: Cytotoxicity against human M14 cells assessed as cell growth at 100 uM after 48 hrs by sulforhodamine B assay relative to control; settings: M14, 48 h, read-out: Activity
M14 [18] = assay: Cytotoxicity against human M14 cells assessed as cell growth at 0.01 uM after 48 hrs by sulforhodamine B assay relative to control; settings: M14, 48 h, read-out: Activity
SK-OV-3 = assay: Cytotoxicity against human SKOV3 cells assessed as cell growth at 1 uM after 48 hrs by sulforhodamine B assay relative to control; settings: SK-OV-3, 48 h, read-out: Activity
SN12C [19] = assay: Cytotoxicity against human SN12C cells assessed as growth inhibition after 48 hrs by sulforhodamine B assay

Compound: COc1ccc(C(=O)/C=C/c2cc(-c3ccc4c(c3)OCO4)n[nH]2)cc1OC
- growth at 1 µM (SF-539 [1]): 88%
- growth at 10 µM (OVCAR-5 [2]): 17%
- growth at 0.01 µM (786-0 [3]): 96%
- growth at 0.01 µM (SW-620): 100%
- growth at 10 µM (IGROV-1): -4%
- growth at 0.01 µM (A498): 78%
- growth at 100 µM (DU-145): -97%
- growth at 0.01 µM (UO-31): 86%
- LC50 (concentration killing 50% of cells) (NCI-H226): > 100 µM
- TGI (NCI-H226): 11.2 µM
- growth at 100 µM (SNB-19): -95%
- growth at 100 µM (786-0 [4]): -83%
- growth at 0.1 µM (OVCAR-5 [5]): 95%
- GI50 (BT-549): 1.97 µM
- LC50 (concentration killing 50% of cells) (BT-549): 8.98 µM
- TGI (BT-549): 4.21 µM
- growth at 10 µM (SK-MEL-5): 41%
- LC50 (KM12): 34.9 µM
- TGI (KM12): 9.48 µM
- growth at 10 µM (NCI-H322M): -15%
- growth at 10 µM (HT-29 [6]): 2%
- growth at 0.01 µM (SN12C [7]): 92%
- growth at 0.01 µM (RXF 393 [8]): 98%
- GI50 (T47D [9]): 3.23 µM
- LC50 (T47D [9]): > 100 µM
- TGI (T47D [9]): 26.1 µM
- LC50 (HOP-62): 25.8 µM
- TGI (HOP-62): 5.6 µM
- growth at 0.1 µM (HT-29 [10]): 92%
- growth at 100 µM (RXF 393 [11]): -95%
- growth at 100 µM (HCT-116): -64%
- growth at 100 µM (HCT-15): 2%
- LC50 (OVCAR-3): 14.3 µM
- TGI (OVCAR-3): 4.61 µM
- growth at 10 µM (T47D [12]): 22%
- growth at 10 µM (M14 [13]): 38%
- growth at 1 µM (M14 [14]): 100%
- growth at 100 µM (MDA-MB-231): -86%
- growth at 1 µM (T47D [15]): 79%
- growth at 0.1 µM (SR): 88%
- growth at 0.01 µM (SF-539 [16]): 98%
- growth at 100 µM (M14 [17]): -77%
- growth at 0.01 µM (M14 [18]): 98%
- growth at 1 µM (SK-OV-3): 99%
- LC50 (SN12C [19]): 53.7 µM
- TGI (SN12C [19]): 13.6 µM

Compound: COc1ccc(C(=O)/C=C/c2cc(-c3ccc(OC)c(OC)c3)n[nH]2)cc1OC
- growth at 1 µM (SF-539 [1]): 35%
- growth at 10 µM (OVCAR-5 [2]): -30%
- growth at 0.01 µM (786-0 [3]): 92%
- growth at 0.01 µM (SW-620): 96%
- growth at 10 µM (IGROV-1): 6%
- growth at 0.01 µM (A498): 82%
- growth at 100 µM (DU-145): -100%
- growth at 0.01 µM (UO-31): 89%
- GI50 (NCI-H226): 1.66 µM
- TGI (NCI-H226): 4.23 µM
- growth at 100 µM (SNB-19): -36%
- growth at 100 µM (786-0 [4]): -32%
- growth at 0.1 µM (OVCAR-5 [5]): 94%
- GI50 (BT-549): 1.44 µM
- TGI (BT-549): 2.92 µM
- growth at 10 µM (SK-MEL-5): -97%
- GI50 (KM12): 0.625 µM
- TGI (KM12): 2.08 µM
- growth at 10 µM (NCI-H322M): -9%
- growth at 10 µM (HT-29 [6]): -28%
- growth at 0.01 µM (SN12C [7]): 101%
- growth at 0.01 µM (RXF 393 [8]): 94%
- GI50 (T47D [9]): 1.36 µM
- TGI (T47D [9]): 6.65 µM
- GI50 (HOP-62): 1.73 µM
- TGI (HOP-62): 5.6 µM
- growth at 0.1 µM (HT-29 [10]): 96%
- growth at 100 µM (RXF 393 [11]): -90%
- growth at 100 µM (HCT-116): -45%
- growth at 100 µM (HCT-15): -10%
- GI50 (OVCAR-3): 1.96 µM
- TGI (OVCAR-3): 4.72 µM
- growth at 10 µM (T47D [12]): -13%
- growth at 10 µM (M14 [13]): -58%
- growth at 1 µM (M14 [14]): 92%
- growth at 100 µM (MDA-MB-231): -28%
- growth at 1 µM (T47D [15]): 60%
- growth at 0.1 µM (SR): 81%
- growth at 0.01 µM (SF-539 [16]): 89%
- growth at 100 µM (M14 [17]): -51%
- growth at 0.01 µM (M14 [18]): 89%
- growth at 1 µM (SK-OV-3): 90%
- GI50 (SN12C [19]): 1.92 µM
- TGI (SN12C [19]): 4.82 µM
